In one experiment the target is T1, hCB2 (Homo sapiens, UniProt P34972).
T1 construct: expressed in transfected cells
The experiment is described as follows: GTPγ[35S] binding assay, agonist properties on hCB2. It is filed as biochemical.

Another experiment deals with T2, hCB1 (Homo sapiens, UniProt P21554).
T2 construct: expressed in transfected cells
The experiment is described as follows: biochemical. Format: biochemical.

In experiment [1] the target is T3, hCB1b (Homo sapiens, UniProt P21554).
T3 construct: expressed in transfected cells
T3 sequence (P21554 1-439 isoform P21554-3): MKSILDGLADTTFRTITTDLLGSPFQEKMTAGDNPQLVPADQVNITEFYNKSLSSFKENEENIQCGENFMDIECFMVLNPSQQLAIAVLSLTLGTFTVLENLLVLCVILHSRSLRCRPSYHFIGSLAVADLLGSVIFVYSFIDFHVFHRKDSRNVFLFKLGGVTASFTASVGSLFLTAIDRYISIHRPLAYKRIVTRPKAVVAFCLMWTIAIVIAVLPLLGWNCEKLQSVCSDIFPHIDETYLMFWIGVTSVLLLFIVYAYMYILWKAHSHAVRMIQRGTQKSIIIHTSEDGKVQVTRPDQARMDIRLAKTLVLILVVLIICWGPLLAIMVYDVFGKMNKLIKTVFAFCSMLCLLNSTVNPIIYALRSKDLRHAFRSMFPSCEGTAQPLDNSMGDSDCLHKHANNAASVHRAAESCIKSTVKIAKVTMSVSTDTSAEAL
As to the kind of experiment: biochemical. It is filed as biochemical.

For another experiment, the target named is T4, hCB1a (Homo sapiens, UniProt P21554).
T4 construct: expressed in transfected cells
T4 sequence (P21554 1-411 isoform P21554-2): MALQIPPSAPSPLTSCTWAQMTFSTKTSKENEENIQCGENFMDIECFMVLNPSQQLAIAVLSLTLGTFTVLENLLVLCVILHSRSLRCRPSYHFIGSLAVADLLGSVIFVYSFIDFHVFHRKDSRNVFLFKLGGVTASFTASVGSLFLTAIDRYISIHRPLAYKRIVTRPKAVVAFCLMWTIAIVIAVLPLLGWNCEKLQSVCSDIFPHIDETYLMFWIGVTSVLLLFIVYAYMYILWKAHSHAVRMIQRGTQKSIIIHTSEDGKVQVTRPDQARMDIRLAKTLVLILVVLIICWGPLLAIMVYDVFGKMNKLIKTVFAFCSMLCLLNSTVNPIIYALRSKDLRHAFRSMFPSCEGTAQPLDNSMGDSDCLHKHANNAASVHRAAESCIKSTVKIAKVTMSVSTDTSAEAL
As to the kind of experiment: biochemical. Format: biochemical.

Experiment [2] deals with T3, hCB1b. As to the kind of experiment: FLIPR intracellular calcium mobilization assay (Fluo-3), HEK-293S cells expressing human CB1b receptor and Gα16. It is filed as cell-based. The method, then: In order to assess the functionality of the human CB1b receptor variant, a functional assay was performed with FLIPR (Fluorescent Imaging Plate Reader, Molecular Devices) using the fluorescent calcium indicator Fluo-3 (Molecular Probes) on a 96 well platform. […] On the day of the experiment, the cells were initially washed once with Hank's buffer (pH7.4) containing 20 mM Hepes and 0.1% BSA (HBSS buffer) and subsequently loaded with fluorescent solution (HBSS buffer, 4 μM Fluor-3 and 0.04% pluronic acid). The cells were incubated at 37° C. for 1 hour in a humidified chamber. Following the incubation step, cells were washed five times with HBSS buffer. […] A range of other natural and synthetic cannabinoid ligands were also tested.
(A change in cytosolic calcium serves as a functional read-out for many receptors and channels.)

In experiment [3] the target is T5, un-spliced human CB 1 receptor (Homo sapiens, UniProt P21554).
T5 construct: expressed in transfected cells
T5 sequence (P21554 whole entry, canonical isoform): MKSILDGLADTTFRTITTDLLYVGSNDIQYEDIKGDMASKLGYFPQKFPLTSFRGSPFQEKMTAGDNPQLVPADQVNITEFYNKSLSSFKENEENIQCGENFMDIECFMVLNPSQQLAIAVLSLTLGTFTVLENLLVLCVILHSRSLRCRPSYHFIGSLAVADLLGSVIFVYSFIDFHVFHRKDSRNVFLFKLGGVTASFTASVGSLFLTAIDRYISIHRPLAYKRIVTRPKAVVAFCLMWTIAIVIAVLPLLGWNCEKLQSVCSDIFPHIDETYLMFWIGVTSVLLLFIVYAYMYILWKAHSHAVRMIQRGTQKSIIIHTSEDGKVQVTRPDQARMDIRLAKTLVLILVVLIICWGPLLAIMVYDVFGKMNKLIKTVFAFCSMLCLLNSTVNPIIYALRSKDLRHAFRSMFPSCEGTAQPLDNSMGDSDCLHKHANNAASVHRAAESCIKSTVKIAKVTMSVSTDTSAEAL
The experiment is described as follows: FLIPR intracellular calcium mobilization assay (Fluo-3), HEK-293S cells expressing un-spliced hCB1 receptor and Gα16. It is filed as cell-based.

[4] abbreviates: agonist, GTPγ[35S] binding assay, read-out: EC50 hCB1.
[5] abbreviates: agonist, GTPγ[35S] binding assay, read-out: EC50 hCB1b.
Where [6] appears, read: agonist, GTPγ[35S] binding assay, read-out: EC50 hCB1a.

Read-outs that look alike come from different tables or passages of the source.

The record followed here is patent US20060115816A1, “Splice variant cannabinoid receptor (cb1b)” (priority 2002, published 2006).

T1 sequence (P34972 whole entry): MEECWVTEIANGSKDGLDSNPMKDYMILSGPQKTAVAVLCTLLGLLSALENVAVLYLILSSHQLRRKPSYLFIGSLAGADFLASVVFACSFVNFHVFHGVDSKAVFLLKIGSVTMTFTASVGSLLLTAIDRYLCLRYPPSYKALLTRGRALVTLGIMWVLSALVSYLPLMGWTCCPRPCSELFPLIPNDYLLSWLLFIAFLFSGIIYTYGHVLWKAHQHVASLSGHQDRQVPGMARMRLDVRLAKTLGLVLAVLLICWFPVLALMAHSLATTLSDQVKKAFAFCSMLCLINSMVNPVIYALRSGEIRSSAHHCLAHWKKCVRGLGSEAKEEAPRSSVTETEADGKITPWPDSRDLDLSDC
T2 sequence (P21554 whole entry): as the sequence (P21554 whole entry, canonical isoform) above

As for `CCCC(C)(C)c1ccc2c(c1)OC(C)(C)[C@@H]1CC=C(C)C[C@@H]21` [JWH133], the EC50 on hCB2 was 1.8 nM; at hCB1 (setting [4]), greater than 1000 nM; on hCB1b [1] (setting [5]), greater than 1000 nM; at hCB1a (setting [6]) it was greater than 1000 nM.
In the case of `CCCCC/C=C\C/C=C\C/C=C\C/C=C\CCCC(=O)OCCN` [Virodhamine], the EC50 on hCB2 was 1310 nM; at hCB1 (setting [4]), 934 nM; on hCB1b [1] (setting [5]), greater than 1000 nM; at hCB1a (setting [6]) it was greater than 1000 nM.
In the case of `CCCCC/C=C\C/C=C\C/C=C\C/C=C\CCCCOC(CO)CO` [Noladin Ether], the EC50 at hCB2 was greater than 1000 nM; at hCB1 (read-out: EC50 hCB1) it was 5.1 nM; at hCB1b [1] (read-out: EC50 hCB1b) it was greater than 1000 nM; at hCB1a (read-out: EC50 hCB1a), greater than 1000 nM.
Turning to `CCCCCCCCCCCCCCCC(=O)NCCO` [Palmitoylethanolamine], the EC50 at hCB2 was 349 nM; at hCB1 (setting [4]), greater than 1000 nM; on hCB1b [1] (setting [5]) it was greater than 1000 nM; at hCB1a (setting [6]), greater than 1000 nM.
Regarding `CCCCC/C=C\C/C=C\C/C=C\C/C=C\CCCC(=O)OC(CO)CO` [2-arachodonylglycerol], the response at hCB2 was half-maximal at 1690 nM (EC50).
Turning to `CCCCCCC(C)(C)c1cc(O)c2c(c1)OC(C)(C)[C@@H]1CC=C(CO)C[C@@H]21` [Hu210], the EC50 was 0.15 nM at hCB1b [2]; 0.06 nM in experiment [3]; 0.06 nM at hCB1; 0.15 nM on hCB1b [1]; 0.2 nM at hCB1a.

One may read the EC50 as the concentration giving half of the maximal effect.
